Measured values as given in paper PMC7751416, “Novel positive allosteric modulators of A2B adenosine receptor acting as bone mineralisation promoters” (Journal of Enzyme Inhibition and Medicinal Chemistry, 2020).

Columns and labels:
MSCs [1] = system: MSCs; parameters: method as in PMID 25241343; conditions: read-out: EC50, potency on MSCs; cited from earlier work
MSCs [2] = test: Quantification of mineralisation (Alizarin Red staining) by MSCs-derived osteoblasts; format: cell-based, human; conditions: MSCs 15 days in osteogenic medium, mean ± SEM
Protocol: Human bone marrow derived MSCs were cultured in normal growth medium (MSCGM, Sigma Aldrich), plated (5.000 cells/cm^2) in 75-cm^2 flasks and incubated at 37 °C in 5% CO2 and 95% air. The medium was changed to remove non adherent cells every 3 to 4 days and the cells were used at passages 2 to 6.
MSCs were seeded at a density of 3300 cells/cm^2 and maintained in growth medium for 2 days. Then, medium was replaced with Mesenchymal Stem Cell Osteogenic Differentiation Medium (Cat. N. C-28013, Sigma Aldrich) and treated in the absence (control) or in the presence of BAY60-6583 (5 nM) alone or in combination with the new compounds. Treatments were repeated every 3 days and the mineralisation was quantified after 15 days of treatment. The rate of mineralisation was quantified using alizarin red staining as previously reported. Briefly, cells were washed with PBS, fixed (4% formaldehyde in PBS) for 15 min and washed three times with PBS. Then, Alizarin Red S (1:100 in distilled water, adjusted to pH 4.2 and filtered) was added and incubated for 20 min, at the end cells were washed (five times) in 50% ethanol and air dried. For quantification, cells were destained overnight in 10% (w/v) cetylpyridinium chloride at room temperature and the absorbance was read using a spectrophotometer (Victor Wallac 2, Perkin Elmer) at 562 nm.
Figure 1. Effects of the new compounds on mineralisation mediated by MSCs-derived osteoblast. MSCs were cultured for 15 days in osteogenic medium with compounds at 1 μM concentration in the presence (A) or in the absence (B) of the A2B AR agonist BAY60-6583 (5 nM). After treatments, cells were stained with Alizarin Red and mineralisation was evaluated as reported in Experimental section. Data are expressed as percentage of mineralisation versus the CTRL set to 100% and represent the mean ± SEM of at least two independent experiments. Each experiment was performed in duplicate. *p < 0.05; **p < 0.01; ***p < 0.001 vs. CTRL. #p < 0.05; ###p < 0.001 vs. BAY60-6583 or NECA.

human A2B AR = target: T1, human A2B AR (Homo sapiens, UniProt P29275); test: Measurement of cyclic AMP levels in A2B AR CHO cells; format: cell-based
T1 construct: K. N. Klotz, Wurzburg University (gift); host or cells: CHO cells, stably transfected
T1 sequence (P29275 1-332): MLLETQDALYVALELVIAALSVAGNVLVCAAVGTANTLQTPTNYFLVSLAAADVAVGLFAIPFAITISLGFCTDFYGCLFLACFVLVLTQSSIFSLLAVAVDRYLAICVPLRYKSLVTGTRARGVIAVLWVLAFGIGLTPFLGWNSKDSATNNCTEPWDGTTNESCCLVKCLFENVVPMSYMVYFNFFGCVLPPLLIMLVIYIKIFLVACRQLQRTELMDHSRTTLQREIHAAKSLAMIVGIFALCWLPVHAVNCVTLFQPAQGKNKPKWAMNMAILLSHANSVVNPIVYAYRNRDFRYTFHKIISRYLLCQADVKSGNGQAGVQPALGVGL
Protocol: Intracellular cyclic AMP (cAMP) levels were measured using a competitive protein binding method, as previously reported[31] A2B AR CHO cells were seed at a density of 24 000 cell/cm^2 in a 24 multiwell plate. After 48 h, the medium was removed and the cells were incubated at 37 °C for 15 min with 500 µL of Dulbecco’s Modified Eagle Medium (DMEM) in the presence of ADA (1 U/mL) and the phosphodiesterase inhibitor Ro20-1724 (20 µM).
The agonist efficacy profile of the compounds at ARs was evaluated by assessing their ability to modulate intracellular cAMP levels in the absence of standard agonists. The antagonism profile of the new compounds was evaluated by assessing their ability to inhibit 100 nM NECA-mediated accumulation of cAMP. The new compounds were incubated 10 min before the addiction of the agonists. Then, cells were incubated in the reaction medium for 15 min at 37 °C. The reaction was stopped by the removal of the medium and the addition of 0.4 N HCl. After 30 min, lysates were neutralised with 4 N KOH and the suspension was centrifuged at 800 g for 5 min. For the determination of cAMP production, bovine adrenal cAMP-binding protein was incubated with [^3H]cAMP (2 nM) at 0 °C for 150 min in a total volume of 300 µL. Bound radioactivity was separated by rapid filtration. The radioactivity was measured by liquid scintillation spectrometry.
Figure 2. Effects of compound 9 as positive allosteric modulator of the A2B AR. A) Effects of 9 on NECA-mediated cAMP accumulation in human A2B AR-transfected CHO cells. CHO cells were treated with an EC50 NECA concentration (100 nM) in the absence or presence of different concentrations of the tested compound (1 nM–10 μM). […] CHO cells were treated with different NECA concentration (1 nM–10 μM) in the absence or presence of 9 (650 nM or 6.5 μM). After 15 min incubation, the reaction was stopped and the intracellular cAMP levels were quantified. The data are expressed as the percentage of cAMP/well versus the maximal NECA effect, which was set to 100% and represent the mean ± SEM of at least three different experiments. Each experiment was performed in duplicate.

[3] = target: T2, human A2A adenosine receptors (Homo sapiens, UniProt P29274); test: Human A2A adenosine receptor competition binding ([3H]NECA, CHO cell membranes); conditions: radioligand binding, A2A AR
T2 construct: K. N. Klotz, Wurzburg University (gift); host or cells: CHO cells, stably transfected; membranes used
T2 sequence (P29274 whole entry): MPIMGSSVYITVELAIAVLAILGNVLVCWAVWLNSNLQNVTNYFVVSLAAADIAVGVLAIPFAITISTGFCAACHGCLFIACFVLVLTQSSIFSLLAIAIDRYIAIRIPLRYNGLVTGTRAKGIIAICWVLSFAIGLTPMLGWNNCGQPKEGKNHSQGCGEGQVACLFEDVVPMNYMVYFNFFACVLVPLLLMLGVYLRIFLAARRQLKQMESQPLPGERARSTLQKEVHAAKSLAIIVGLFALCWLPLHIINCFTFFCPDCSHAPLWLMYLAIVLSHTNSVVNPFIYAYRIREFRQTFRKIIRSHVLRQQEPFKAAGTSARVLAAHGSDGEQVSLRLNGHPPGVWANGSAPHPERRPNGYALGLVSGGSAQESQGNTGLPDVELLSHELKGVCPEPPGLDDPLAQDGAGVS
Protocol: (§1) ADA (Cat. N. 10102105001) was from Sigma Aldrich (Italy). All other reagents were from commercial sources and of the highest commercially available grade. CHO cells stably expressing human A1, A2A, A3 and A2B ARs were kindly supplied by Prof. K. N. Klotz, Wurzburg University, Germany. MSCs (Cat. N. SCC034) were purchased by Sigma Aldrich (Milan, Italy).
(§2) Competition binding experiments were performed as previously reported. Briefly, membranes of A2A CHO cells were incubated at 25 °C for 90 min in 500 µL of buffer in the presence of [^3H]NECA (30 nM) and six different concentrations of the newly synthesised compounds. NECA (100 µM) was used for the determination of non-specific binding.

[4] = target: T3, human A3 adenosine receptors (Homo sapiens, UniProt P0DMS8); test: Human A3 adenosine receptor competition binding ([3H]NECA, CHO cell membranes); conditions: radioligand binding, A3 AR
T3 construct: K. N. Klotz, Wurzburg University (gift); host or cells: CHO cells, stably transfected; membranes used
T3 sequence (P0DMS8 1-318): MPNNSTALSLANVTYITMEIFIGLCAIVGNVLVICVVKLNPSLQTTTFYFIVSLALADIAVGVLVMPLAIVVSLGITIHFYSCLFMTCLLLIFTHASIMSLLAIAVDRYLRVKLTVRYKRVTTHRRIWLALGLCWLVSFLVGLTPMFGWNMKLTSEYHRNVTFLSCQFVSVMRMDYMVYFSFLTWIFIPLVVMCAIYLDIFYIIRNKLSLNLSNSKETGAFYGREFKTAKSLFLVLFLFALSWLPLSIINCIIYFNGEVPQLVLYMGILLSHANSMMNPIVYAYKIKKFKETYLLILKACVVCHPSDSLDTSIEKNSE
Protocol: as §1
as §2, with “Briefly, cell” for “Briefly,”, “A3” for “A2A”, “180” for “90”

[5] = target: T4, human A1 adenosine receptors (Homo sapiens, UniProt P30542); test: Human A1 adenosine receptor competition binding ([3H]DPCPX, CHO cell membranes); conditions: radioligand binding, A1 AR
T4 construct: K. N. Klotz, Wurzburg University (gift); host or cells: CHO cells, stably transfected; membranes used
T4 sequence (P30542 1-326): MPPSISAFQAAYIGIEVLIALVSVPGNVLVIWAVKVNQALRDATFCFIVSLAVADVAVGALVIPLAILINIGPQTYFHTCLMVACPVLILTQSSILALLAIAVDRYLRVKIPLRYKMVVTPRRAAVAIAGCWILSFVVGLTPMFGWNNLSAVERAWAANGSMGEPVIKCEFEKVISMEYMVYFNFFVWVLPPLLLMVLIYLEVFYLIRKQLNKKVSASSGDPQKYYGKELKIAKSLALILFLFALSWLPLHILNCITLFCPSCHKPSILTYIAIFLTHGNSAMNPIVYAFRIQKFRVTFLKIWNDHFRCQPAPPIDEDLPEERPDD
Protocol: as §1
Competition binding experiments were performed as previously reported. […] R-PIA (50 µM) was used for the determination of non-specific binding.

[6] = compound 1 μM alone, in the absence of BAY60-6583
[7] = compound 1 μM in the presence of BAY60-6583 (5 nM)
[8] = NECA concentration-response curves (1 nM-10 μM) in absence or presence of 9 (650 nM and 6.5 µM)

melting point | SMILES | percentage of mineralisation versus the CTRL set to 100% (MSCs [2]; [6]) | percentage of mineralisation versus the CTRL set to 100% (MSCs [2]; [7]) | further results
– | N#Cc1c(N)nc(SCC(N)=O)c(C#N)c1-c1ccc(OCC2CC2)cc1 [BAY60-6583, reference compound] | – | – | EC50 (MSCs [1]): 0.006 µM; percentage of mineralisation versus the CTRL set to 100% (MSCs [2]; BAY60-6583 5 nM alone): 129.5 ± 1.9%
167 to 169 °C | Cn1cc(C(=O)C(=O)Nc2ccccc2)c2ccccc21 [Compound 6, N-Phenyl-2-(1-methyl-1H-indol-3-yl)glyoxylamide] | – | – | –
147 to 149 °C | Cn1cc(C(=O)C(=O)NCc2ccccc2)c2ccccc21 [Compound 7, N-Benzyl-2-(1-methyl-1H-indol-3-yl)glyoxylamide] | – | – | –
87 to 89 °C | O=C(NCc1ccccc1)C(=O)c1csc2ccccc12 [Compound 8, N-Benzyl-2-(benzothien-3-yl)glyoxylamide] | inactivity | – | –
137 to 139 °C | O=C(NCc1ccc(Cl)cc1)C(=O)c1cc2ccccc2o1 [Compound 9, N-(4-Chlorobenzyl)-2-(benzofuran-2-yl)glyoxylamide] | 111.5 ± 4.6% | 156.8 ± 7.6% | effect on efficacy of NECA in stimulating cAMP accumulation (human A2B AR; [8]): significantly enhanced the efficacy of NECA; effect on potency of NECA in stimulating cAMP accumulation (human A2B AR; [8]): without affecting agonist potency; EC50 (human A2B AR; compound 1 nM-10 µM in the presence of NECA 100 nM, human A2B AR-transfected CHO cells, read-out: EC50, positive allosteric modulation of A2B AR (NECA-mediated cAMP accumulation)): 0.636 ± 0.0653 µM; % cAMP production (vs NECA 100 nM set to 100%), Alone (human A2B AR; compound 10 µM alone, CHO cells expressing human A2B AR, mean ± SEM): 2.7 ± 1.3%; % cAMP production (vs NECA 100 nM set to 100%), + agonist (human A2B AR; compound 10 µM in the presence of NECA (100 nM), CHO cells expressing human A2B AR, mean ± SEM): 184.0 ± 11.7 %; Ki [3]: > 10 µM; Ki [4]: > 10 µM; Ki [5]: > 10 µM
95.6 to 95.8 °C | O=C(NCc1ccccc1)C(=O)c1cccs1 [Compound 10, N-Benzyl-2-(thien-2-yl)glyoxylamide] | inactivity | 150.6 ± 2.6% | –
88 to 90 °C | Cn1cc(C(=O)C(=O)c2ccccc2)c2ccccc21 [Compound 13, 1-(1-Methyl-1H-indol-3-yl)-2-phenyl-1,2-ethanedione] | – | – | –

SMILES | melting point | percentage of mineralisation versus the CTRL set to 100% (MSCs [2]; [6]) | percentage of mineralisation versus the CTRL set to 100% (MSCs [2]; [7]) | further results
O=C(Nc1ccccc1)C(=O)c1cn(CCc2ccccc2)c2ccccc12 [Compound 4] | 139 to 140 °C | 130.0 ± 6.8% | 179.2 ± 9.6% | –
O=C(NCc1ccccc1)C(=O)c1cn(CCc2ccccc2)c2ccccc12 [Compound 5, N-Benzyl-2-(1-phenylethyl-1H-indol-3-yl)glyoxylamide] | 83 to 85 °C | 128.7 ± 3.6% | 152.3 ± 4.3% | –
